From patent publication US20180099931A1 (AbbVie S.à.r.l., priority 2016, published 2018)
Like-named read-outs stand apart in the source and are kept apart here.

Target: T1, F508delCFTR (Homo sapiens, UniProt P13569, DEL508-508)
T1 construct: expressed in transfected cells; host or cells: CFBE41o- human lung-derived epithelial cells (CFBE4lo-F508delCFTR-HRP), doxycycline-inducible
Assay: Cell Surface Expression-Horse Radish Peroxidase (CSE-HRP) Assay;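 on Maximum % activity (with co-corrector): co-corrector and positive control are both the same reference corrector at 2 µM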;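 on Maximum % activity (without co-corrector): percent of the 2 µM on-plate positive control corrector response above DMSO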
Type: cell-based
Details: for Emax: read-out: Maximum % activity (without co-corrector)

[1] = test compound without co-corrector, maximum at any tested concentration, normalized to on-plate positive control
[2] = test compound without co-corrector, read-out: EC50 (without co-corrector)
[3] = with co-corrector (2 μM of 3-[(2R,4R)-4-({[1-(2,2-difluoro-1,3-benzodioxol-5-yl)cyclopropyl]carbonyl}amino)-7-methoxy-3,4-dihydro-2H-chromen-2-yl]benzoic acid), maximum at any tested concentration, normalized to on-plate positive control
[4] = with co-corrector (2 μM of 3-[(2R,4R)-4-({[1-(2,2-difluoro-1,3-benzodioxol-5-yl)cyclopropyl]carbonyl}amino)-7-methoxy-3,4-dihydro-2H-chromen-2-yl]benzoic acid), read-out: EC50 (with co-corrector)
[5] = with co-corrector (2 μM), maximum at any tested concentration, normalized to on-plate positive control
[6] = without co-corrector, maximum at any tested concentration, normalized to on-plate positive control

T1 sequence (P13569 with tags, fused parts or gaps DEL508-508): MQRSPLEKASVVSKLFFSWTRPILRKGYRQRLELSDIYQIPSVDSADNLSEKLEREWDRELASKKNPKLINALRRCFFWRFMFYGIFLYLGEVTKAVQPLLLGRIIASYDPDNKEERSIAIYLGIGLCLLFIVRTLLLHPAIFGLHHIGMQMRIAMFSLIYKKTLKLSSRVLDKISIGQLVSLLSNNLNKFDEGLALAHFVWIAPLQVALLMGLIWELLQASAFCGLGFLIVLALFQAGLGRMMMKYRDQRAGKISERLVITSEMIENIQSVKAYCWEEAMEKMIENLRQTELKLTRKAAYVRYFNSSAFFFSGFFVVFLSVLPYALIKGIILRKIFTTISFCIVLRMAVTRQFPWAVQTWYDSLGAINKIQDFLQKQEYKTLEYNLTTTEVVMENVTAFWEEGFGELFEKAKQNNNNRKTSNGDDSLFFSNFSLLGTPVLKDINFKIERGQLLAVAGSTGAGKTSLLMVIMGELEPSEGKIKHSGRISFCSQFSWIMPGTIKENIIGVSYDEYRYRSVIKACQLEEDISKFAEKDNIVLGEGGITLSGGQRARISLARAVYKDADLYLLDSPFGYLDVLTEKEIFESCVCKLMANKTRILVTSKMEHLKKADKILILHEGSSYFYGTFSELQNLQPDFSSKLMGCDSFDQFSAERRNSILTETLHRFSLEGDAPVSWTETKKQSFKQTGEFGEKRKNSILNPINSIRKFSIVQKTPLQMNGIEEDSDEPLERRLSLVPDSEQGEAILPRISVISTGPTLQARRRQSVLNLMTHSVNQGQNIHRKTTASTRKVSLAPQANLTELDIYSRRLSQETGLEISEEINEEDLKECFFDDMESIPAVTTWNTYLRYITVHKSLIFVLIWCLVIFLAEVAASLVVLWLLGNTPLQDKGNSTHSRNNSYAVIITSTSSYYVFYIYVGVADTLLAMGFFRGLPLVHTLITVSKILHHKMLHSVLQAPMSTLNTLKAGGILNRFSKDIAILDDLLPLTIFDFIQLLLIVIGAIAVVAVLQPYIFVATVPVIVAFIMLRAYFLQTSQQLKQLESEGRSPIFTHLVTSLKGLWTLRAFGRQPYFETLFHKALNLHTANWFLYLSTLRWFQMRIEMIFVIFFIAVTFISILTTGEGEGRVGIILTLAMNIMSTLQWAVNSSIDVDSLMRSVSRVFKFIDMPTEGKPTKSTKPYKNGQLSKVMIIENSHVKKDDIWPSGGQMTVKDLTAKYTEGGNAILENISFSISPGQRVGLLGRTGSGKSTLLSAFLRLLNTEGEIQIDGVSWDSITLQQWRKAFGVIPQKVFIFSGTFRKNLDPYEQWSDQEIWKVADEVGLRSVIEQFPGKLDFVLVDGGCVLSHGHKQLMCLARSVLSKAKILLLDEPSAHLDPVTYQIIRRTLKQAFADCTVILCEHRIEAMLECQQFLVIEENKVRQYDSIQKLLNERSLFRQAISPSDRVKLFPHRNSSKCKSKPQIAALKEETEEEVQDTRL

Structure (SMILES)	Emax [1] [%]	EC50 [2] [nM]	Maximum % activity (with co-corrector) [3]	EC50 [4] [nM]	Maximum % activity (with co-corrector) [5]	Emax [6] [%]	Maximum % activity (with co-corrector) (with co-corrector (2 μM), maximum at any tested concentration, normalized to on-plate positive control, 2 µM)	Maximum % activity (without co-corrector) [6]
COc1ccc(C(C)(C)C)cc1CN[C@H]1[C@H](C(C)(C)C)[C@@H](C(=O)O)N(C(=O)[C@@H]2C[C@H]2c2ccccc2)[C@H]1c1ccccc1 (relative stereo) [II-339]	> 200	1000 to 10000	+++ (≥350)	< 1000	–	–	–	–
COc1ncc(C(F)(F)F)cc1CN[C@H]1[C@H](C(C)(C)C)[C@@H](C(=O)O)N(C(=O)[C@H]2CC[C@@H](c3ccccc3)O2)[C@H]1c1ccccc1 (relative stereo) [II-426]	< 100	1000 to 10000	+++ (≥350)	< 1000	–	–	–	–
COc1nc(C(C)(C)C)ccc1CN[C@H]1[C@H](C(C)(C)C)[C@@H](C(=O)O)N(C(=O)[C@@H]2OC[C@@H]3CCC[C@@H]32)[C@H]1c1ccccc1 (relative stereo) [II-431]	100 to 200	< 1000	+++ (≥350)	< 1000	–	–	–	–
COc1nc(C(C)(C)C)ccc1CN[C@H]1[C@H](C(C)(C)C)[C@@H](C(=O)O)N(C(=O)[C@H]2OC[C@H]3CCC[C@H]32)[C@H]1c1ccccc1 (relative stereo) [II-432]	< 100	1000 to 10000	+++ (≥350)	1000 to 10000	–	–	–	–
COc1ccc(C(C)(C)C)cc1CN[C@H]1[C@H](C(C)(C)C)[C@@H](C(=O)O)N(C(=O)[C@H]2CCC[C@H](OC)C2)[C@H]1c1cccnc1N(C)C (relative stereo) [II-448]	> 200	1000 to 10000	+++ (≥350)	1000 to 10000	–	–	–	–
COc1ccc(C(C)(C)C)cc1CN[C@H]1[C@H](C(C)(C)C)[C@@H](C(=O)O)N(C(=O)[C@@H]2CCC[C@@H](OC)C2)[C@H]1c1cccnc1N(C)C (relative stereo) [II-449]	> 200	1000 to 10000	+++ (≥350)	< 1000	–	–	–	–
COc1ccc(C(C)(C)C)cc1CN[C@H]1[C@H](C(C)(C)C)[C@@H](C(=O)O)N(C(=O)[C@H](C)[C@@H]2CCCCO2)[C@H]1c1ccccc1 (relative stereo) [II-454]	100 to 200	1000 to 10000	+++ (≥350)	1000 to 10000	–	–	–	–
COc1ccc(C(C)(C)C)cc1CN[C@H]1[C@H](C(C)(C)C)[C@@H](C(=O)O)N(C(=O)[C@@H](C)[C@H]2CCCCO2)[C@H]1c1ccccc1 (relative stereo) [II-455]	> 200	1000 to 10000	+++ (≥350)	1000 to 10000	–	–	–	–
COc1nc(C(C)(C)C)ccc1CN[C@H]1[C@H](C(C)(C)C)[C@@H](C(=O)O)N(C(=O)[C@H]2CCC[C@@H](OC)C2)[C@H]1c1ccccc1 (relative stereo) [II-456]	> 200	1000 to 10000	+++ (≥350)	1000 to 10000	–	–	–	–
COc1ccc(C(C)(C)C)cc1CN[C@H]1[C@H](C(C)(C)C)[C@@H](C(=O)O)N(C(=O)[C@@H]2[C@H](C(F)(F)F)[C@@H]3CC[C@H]2O3)[C@H]1c1cccnc1N(C)C (relative stereo) [II-473]	> 200	1000 to 10000	+++ (≥350)	< 1000	–	–	–	–
COc1nc(C(C)(C)C)ncc1CN[C@H]1[C@H](C(C)(C)C)[C@@H](C(=O)O)N(C(=O)C2CCCC(F)(F)C2)[C@H]1c1ccccc1 (relative stereo) [II-477]	100 to 200	< 1000	+++ (≥350)	1000 to 10000	–	–	–	–
Cc1cc(C(F)(F)F)cc(N[C@H]2[C@H](C(C)(C)C)[C@@H](C(=O)O)N(C(=O)C3CCCCO3)[C@H]2c2cccnc2N(C)C)n1 (relative stereo) [II-504]	< 100	1000 to 10000	++ (≥150 and <350)	1000 to 10000	–	–	–	–
COc1ccc(C(C)(C)C)cc1CN[C@H]1[C@H](C(C)(C)C)[C@@H](C(=O)O)N(C(=O)[C@@H]2[C@@H](C(F)(F)F)[C@@H]3CC[C@H]2O3)[C@H]1c1ccccc1 (relative stereo) [II-505]	> 200	1000 to 10000	+++ (≥350)	< 1000	–	–	–	–
COc1ccc(C(C)(C)C)cc1CN[C@H]1[C@H](C(C)(C)C)[C@@H](C(=O)O)N(C(=O)[C@H]2[C@H](C(F)(F)F)[C@H]3CC[C@@H]2O3)[C@H]1c1ccccc1 (relative stereo) [II-506]	> 200	1000 to 10000	+++ (≥350)	< 1000	–	–	–	–
COc1ccc(C(C)(C)C)cc1CN[C@H]1[C@H](C(C)(C)C)[C@@H](C(=O)O)N(C(=O)[C@@H]2[C@@H](C(F)(F)F)[C@@H]3CC[C@H]2O3)[C@H]1c1ccccc1OC(F)F (relative stereo) [II-507]	100 to 200	< 1000	+++ (≥350)	< 1000	–	–	–	–
COc1ccc(C(C)(C)C)cc1CN[C@H]1[C@H](C(C)(C)C)[C@@H](C(=O)O)N(C(=O)[C@@H]2C[C@H]3CC[C@@H]2O3)[C@H]1c1cccnc1OC (relative stereo) [II-522]	< 100	1000 to 10000	+++ (≥350)	1000 to 10000	–	–	–	–
COc1cccc([C@H]2[C@@H](NCc3cc(C(F)(F)F)ccc3OC)[C@H](C(C)(C)C)[C@@H](C(=O)O)N2C(=O)C2(C)CCCOC2)n1 (relative stereo) [III-70]	< 100	> 10000	++ (≥150 and <350)	1000 to 10000	–	–	–	–
COc1ccc(C(F)(F)F)cc1CN[C@@H]1[C@@H](C(C)(C)C)[C@H](C(=O)O)N(C(=O)C(OC)c2ccccc2)[C@@H]1c1cccnc1N(C)C (relative stereo) [III-88]	< 100	> 10000	++ (≥150 and <350)	1000 to 10000	–	–	–	–
COc1ccc(C(C)(C)C)cc1CN[C@H]1[C@H](C(C)(C)C)[C@@H](C(=O)O)N(C(=O)C2Cc3ccccc3O2)[C@H]1c1ccccc1 (single isomer, unassigned) [Example 28, (2S,3S,4S,5S)-3-tert-butyl-4-{[(5-tert-butyl-2-methoxyphenyl)methyl]amino}-1-[(2S*)-2,3-dihydro-1-benzofuran-2-carbonyl]-5-phenylpyrrolidine-2-carboxylic acid]	–	< 1000	–	< 1000	+++ (≥350)	> 200	–	–
COc1ccc(C(C)(C)C)cc1CN[C@H]1[C@H](C(C)(C)C)[C@@H](C(=O)O)N(C(=O)C2Cc3ccccc3O2)[C@H]1c1cccnc1N(C)C (single isomer, unassigned) [Example 36, (2S,3S,4S,5S)-3-tert-butyl-4-{[(5-tert-butyl-2-methoxyphenyl)methyl]amino}-1-[(2S*)-2,3-dihydro-1-benzofuran-2-carbonyl]-5-[2-(dimethylamino)pyridin-3-yl]pyrrolidine-2-carboxylic acid]	–	< 1000	–	< 1000	+++ (≥350)	100 to 200	–	–
COc1ccc(C2(C(F)(F)F)CC2)cc1CN[C@H]1[C@H](C(C)(C)C)[C@@H](C(=O)O)N(C(=O)C2Cc3ccccc3O2)[C@H]1c1cccnc1N(C)C (single isomer, unassigned) [Example 37, (2S,3S,4S,5S)-3-tert-butyl-1-[(2R*)-2,3-dihydro-1-benzofuran-2-carbonyl]-5-[2-(dimethylamino)pyridin-3-yl]-4-[({2-methoxy-5-[1-(trifluoromethyl)cyclopropyl]phenyl}methyl)amino]pyrrolidine-2-carboxylic acid]	–	< 1000	–	< 1000	–	–	++ (≥150 and <350)	+ (<100)
COc1ccc(C(C)(C)C)cc1CN[C@H]1[C@H](C(C)(C)C)[C@@H](C(=O)O)N(C(=O)C2CCCC(F)(F)C2)[C@H]1c1cccnc1N(C)C (single isomer, unassigned) [Example 42, (2S,3S,4S,5S)-3-tert-butyl-4-{[(5-tert-butyl-2-methoxyphenyl)methyl]amino}-1-[(1R*)-3,3-difluorocyclohexane-1-carbonyl]-5-[2-(dimethylamino)pyridin-3-yl]pyrrolidine-2-carboxylic acid]	–	< 1000	–	< 1000	+++ (≥350)	> 200	–	–
COc1ccc(C(C)(C)C)cc1CN[C@H]1[C@H](C(C)(C)C)[C@@H](C(=O)O)N(C(=O)C2CCc3ccccc3O2)[C@H]1c1cccnc1N(C)C (single isomer, unassigned) [Example 43, (2S,3S,4S,5S)-3-tert-butyl-4-{[(5-tert-butyl-2-methoxyphenyl)methyl]amino}-1-[(2S*)-3,4-dihydro-2H-1-benzopyran-2-carbonyl]-5-[2-(dimethylamino)pyridin-3-yl]pyrrolidine-2-carboxylic acid]	–	1000 to 10000	–	< 1000	+++ (≥350)	100 to 200	–	–
